Assay results from PubChem BioAssay (NCI).
Several values for one entry are separate records, joined by “and”; a condition that tells them apart may be missing. Equal entries are not always repeated.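 Values below derive from 48-hour exposures of cells grown in 96-well plates, with endpoints linearly interpolated between the two concentrations bracketing the appropriate inhibition level. GI50 marks 50% less growth. TGI: concentration producing complete growth inhibition.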

Assays:
Assay in all cases: NCI-60 cell line screen, 48 h; in the data active = GI50 below about 0.43 µM; inactive = the rest
[1] = system: UACC-62 melanoma
[2] = system: UO-31 renal
[3] = system: OVCAR-8 ovarian
[4] = system: NCI-H522 lung
[5] = system: HL-60(TB) leukemia
[6] = system: PC-3 prostate
[7] = system: U251 CNS
[8] = system: HCT-15 colon
[9] = system: SK-MEL-28 melanoma
[10] = system: SK-MEL-5 melanoma
[11] = system: UACC-257 melanoma
[12] = system: MDA-N
[13] = system: ACHN renal
[14] = system: TK-10 renal
[15] = system: K-562 leukemia
[16] = system: OVCAR-5 ovarian
[17] = system: 786-0 renal
[18] = system: HT29 colon
[19] = system: NCI-H226 lung
[20] = system: EKVX NSCLC
[21] = system: SN12C renal
[22] = system: MDA-MB-231 breast
[23] = system: MCF7 breast
[24] = system: NCI-H460 lung
[25] = system: HOP-92 NSCLC
[26] = system: HOP-62 NSCLC
[27] = system: MDA-MB-435
[28] = system: SNB-19 CNS
[29] = system: IGROV1 ovarian
[30] = system: MOLT-4 leukemia
[31] = system: SF-539 CNS
[32] = system: RXF 393 renal
[33] = system: OVCAR-3 ovarian
[34] = system: SW-620 colon
[35] = system: NCI-H23 lung
[36] = system: SK-OV-3 ovarian
[37] = system: CCRF-CEM leukemia
[38] = system: MALME-3M melanoma
[39] = system: SF-295 CNS
[40] = system: RPMI-8226 leukemia
[41] = system: HCT-116 colon
[42] = system: T-47D breast
[43] = system: OVCAR-4 ovarian
[44] = system: HCC-2998 colon
[45] = system: SNB-75 CNS
[46] = system: DU-145 prostate
[47] = system: LOX IMVI melanoma
[48] = system: NCI/ADR-RES ovarian
[49] = system: M14 melanoma
[50] = system: A498 renal
[51] = system: HS 578T breast
[52] = system: A549 NSCLC
[53] = system: SR leukemia
[54] = system: SF-268 CNS
[55] = system: COLO 205 colon
[56] = system: SK-MEL-2 melanoma
[57] = system: KM12 colon
[58] = system: BT-549 breast
[59] = system: CAKI-1 renal

Cc1cccc2c1C(=O)C1(Cc3ccccc3C1=O)C2 (centres undefined)
96.2 µM: TGI [2]
> 100 µM: TGI [1] | TGI [3] | TGI [4] | TGI [5] | TGI [6] | TGI [7] | TGI [8] | TGI [9] | TGI [10] | TGI [11] | TGI [12] | TGI [13] | TGI [14] | TGI [15] | TGI [16] | TGI [17] | TGI [18] | TGI [19] | TGI [20] | TGI [21] | TGI [22] | TGI [23] | TGI [24] | TGI [25] | TGI [26] | TGI [27] | TGI [28] | TGI [29] | TGI [30] | TGI [31] | TGI [32] | TGI [33] | TGI [34] | TGI [35] | TGI [36] | TGI [37] | TGI [38] | TGI [39] | TGI [40] | TGI [41] | TGI [42] | TGI [43] | TGI [44] | TGI [45] | TGI [46] | TGI [47] | TGI [48] | TGI [49] | TGI [50] | TGI [51] | TGI [52] | TGI [53] | TGI [54] | TGI [55]

CCN1CCC(C(=O)Nc2n[nH]c3nnc(-c4cccc(F)c4F)cc23)CC1
> 23.1 µM: TGI [51]
> 18.2 µM: TGI [57]
active: GI50 [32] 0.403 µM
> 23.9 µM: TGI [25]
> 6.6 µM: TGI [50]
> 18.4 µM: TGI [9]
> 14.2 µM: TGI [33]
> 12.8 µM: TGI [23]
18.3 µM: TGI [31]
7.46 µM: TGI [10]
24.6 µM: TGI [46]
5.78 µM: TGI [32]
19.5 µM: TGI [5]
9.17 µM: TGI [55]
> 19.3 µM: TGI [26] | TGI [45]
20.3 µM: TGI [22]
14.2 µM: TGI [56]
> 17 µM: TGI [4]
11.9 µM: TGI [19]
23.4 µM: TGI [36]
> 20.1 µM: TGI [42]
> 25 µM: TGI [1] | TGI [2] | TGI [3] | TGI [6] | TGI [7] | TGI [8] | TGI [11] | TGI [13] | TGI [14] | TGI [15] | TGI [16] | TGI [17] | TGI [18] | TGI [20] | TGI [21] | TGI [58] | TGI [24] | TGI [27] | TGI [28] | TGI [29] | TGI [30] | TGI [34] | TGI [35] | TGI [37] | TGI [38] | TGI [39] | TGI [40] | TGI [41] | TGI [44] | TGI [47] | TGI [48] | TGI [49] | TGI [52] | TGI [59] | TGI [53] | TGI [54]
inactive: GI50 [1] 10.2 µM | GI50 [2] > 25 µM | GI50 [3] 9.46 µM | GI50 [56] 4.84 µM | GI50 [4] 6.68 µM | GI50 [5] 8.16 µM | GI50 [6] 10.1 µM | GI50 [7] 6.17 µM | GI50 [8] > 25 µM | GI50 [9] 8.35 µM | GI50 [10] 1.62 µM | GI50 [11] 11.9 µM | GI50 [13] 9.68 µM | GI50 [14] 11.3 µM | GI50 [15] 8.39 µM | GI50 [57] 6.1 µM | GI50 [16] 13.9 µM | GI50 [17] 6.32 µM | GI50 [18] 5.02 µM | GI50 [19] 3.41 µM | GI50 [20] 16.9 µM | GI50 [21] 9.49 µM | GI50 [22] 5.51 µM | GI50 [58] 12.2 µM | GI50 [23] 2.2 µM | GI50 [24] 7.96 µM | GI50 [25] 8.03 µM | GI50 [26] 7.62 µM | GI50 [27] 10.5 µM | GI50 [28] 12 µM | GI50 [29] > 21.4 µM | GI50 [30] 12.1 µM | GI50 [31] 3.98 µM | GI50 [33] 2.78 µM | GI50 [34] 10.4 µM | GI50 [35] 16.5 µM | GI50 [36] 2.33 µM | GI50 [37] 6.75 µM | GI50 [38] > 22.6 µM | GI50 [39] 5.73 µM | GI50 [40] > 25 µM | GI50 [41] 7.36 µM | GI50 [42] 4.42 µM | GI50 [43] 7.04 µM | GI50 [44] 16 µM | GI50 [45] 0.821 µM | GI50 [46] 10.3 µM | GI50 [47] 5.59 µM | GI50 [48] > 25 µM | GI50 [49] 11.4 µM | GI50 [50] 0.543 µM | GI50 [51] 3.68 µM | GI50 [52] 10.5 µM | GI50 [59] > 25 µM | GI50 [53] 9.61 µM | GI50 [54] 9.08 µM | GI50 [55] 4.61 µM
22 µM: TGI [43]

CC/C(=C(\c1ccccc1)c1ccc(OCCN(C)C)cc1)c1ccccc1
> 25 µM and 8.31 µM and 9.59 µM: TGI [12]
inactive: GI50 [1] 1.75 µM | GI50 [2] 5.73 µM | GI50 [3] 5.35 µM | GI50 [4] 1.42 µM | GI50 [5] 1.78 µM | GI50 [6] 2.47 µM | GI50 [8] 2.01 µM | GI50 [9] 1.6 µM | GI50 [10] 0.852 µM | GI50 [11] 0.971 µM | GI50 [12] > 25 µM and 6.53 µM | GI50 [15] 1.84 µM | GI50 [57] 2.55 µM | GI50 [16] 6.76 µM | GI50 [17] 2.96 µM | GI50 [18] 1.17 µM | GI50 [20] 4.74 µM | GI50 [21] 3.34 µM | GI50 [22] 3.59 µM | GI50 [58] 6.8 µM | GI50 [23] 1.12 µM | GI50 [25] 1.43 µM | GI50 [27] 2.66 µM | GI50 [29] 4.44 µM | GI50 [32] 1.39 µM | GI50 [33] 2.84 µM | GI50 [34] 2.95 µM | GI50 [35] 3.68 µM | GI50 [37] 2.33 µM | GI50 [38] 1.91 µM | GI50 [40] 1.2 µM | GI50 [41] 2.25 µM | GI50 [42] 0.805 µM | GI50 [44] 0.878 µM | GI50 [47] 1.49 µM | GI50 [48] 2.86 µM | GI50 [49] 1.02 µM | GI50 [50] 2.3 µM | GI50 [52] 2.93 µM | GI50 [59] 3.42 µM | GI50 [53] 1.82 µM | GI50 [55] 0.892 µM
